Here are results for two compounds from patent US20250120975A1, “INTEGRIN INHIBITORS FOR TREATMENT OF PRIMARY SCLEROSING CHOLANGITIS” (Pliant Therapeutics, Inc., priority 2023, published 2025).

This test has as its system PCLivS from human liver tissue with biliary fibrosis (PSC, PBC). In words: Fibrotic gene expression (NanoString) in precision cut liver slices. The conditions noted are these: PCLivS from a single PSC liver, 2 days. The format is cell-based. The source says: A human liver tissue explant was obtained from a PSC patient undergoing liver transplantation.
Slicing: To slice, 8-mm cores were punctured from the liver tissue and were stored in ice cold UW solution until slicing. A tissue core was glued onto the center of the plunger of the specimen syringe for slicing. The core was embedded in 2% low gelling temperature agarose made up in milliQ water. The thickness of the slice was adjusted to 400 μm and was sectioned into oxygenated KHB occurs. The slices were stored in cold UW solution on ice until all slices were cut.
Culture: The compounds were diluted to 1000× concentration in 100% DMSO. The compounds were diluted in a medium with a final concentration of 0.1% DMSO before transferring the slices and making a fresh medium for each 24-H medium change. Before being used for slice culture, all media was equilibrated in the incubator at culture conditions for 30 minutes. After all slices have been cut, all slices were transferred to wells prefilled with oxygenated, warmed, and equilibrated WEGG. The slices were incubated for 1 hour in the incubator at a temperature of 37° C., 5% CO2, 80% 02, 100% humidity on shaking platform set at 55 rpm. After this one-hour recovery, the slices were transferred to wells prefilled with oxygenated, warmed, and equilibrated WEGG with appropriate treatments. The slices were distributed into the treatment groups to account for inter-core variability. The slices were cultured at 37° C., 80% 02, 5% CO2, 100% humidity on shaking platform set at 55 rpm. The medium was changed after 24 hours.
The slices were removed from the well and rinsed in PBS. Excess liquid was removed. The slices were transferred to a microtube pooling all three slices from the same treatment into one tube. The pooled slices were snap frozen in liquid nitrogen and placed on dry ice until all samples were collected and then transferred to −80° C. for storage. For media collection, 140 μL of medium was pooled from each well within a treatment group and transferred to a 96-well Axygen plate. After sealing the plate, spin down occurred at 4000×g for 10 minutes at 4° C. Then, 130 μL aliquots were transferred into 3 new plates. The plates were sealed and stored at −80° C.
(S)-4-((2-methoxyethyl)(4-(5,6,7,8-tetrahydro-1,8-naphthyridin-2-yl)butyl)amino)-2-(quinazolin-4-ylamino)butanoic acid was tested at 100 nM, 1 μM, and 10 μM. OCA, an FXR agonist in clinical trials for PSC, was used at 250 nM and 2.5 μM reflecting Cmax levels observed in clinical trials. An ALK5 inhibitor (R268712) was used at 1 μM (400 times its IC50 per manufacturer) to target max inhibition of the ALK5 receptor.
Methods: Lysis buffer was made with one third RLT buffer in RNAse-free water and 2 mg/mL proteinase K. About 100-200 μL lysis buffer was added to each pool of 3 liver slices. Samples were incubated at 55° C. in the bead bath for 2 hours and 45 minutes, vortexing every 30 minute. Samples were centrifuged and the supernatant aliquoted in 15 μL aliquots into 96-well Axygen plates.
Methods: nCounter PlexSet was run according to standard protocol. Briefly, probe A and probe B were diluted with TE-tween to Working Probe Pools and mixed with hybridization buffer. This master mix was added to the A-H PlexSets and mixed. Each PlexSet was added across a row to a 96 well qPCR plate and proteinase K was added to a final concentration of 2 mg/mL. Lysate from samples was added to appropriate wells and mixed. The plate was sealed, spun, and placed in thermocycler at 67° C. for 16 hours. Hybridized samples were pooled down columns and 35 μL were loaded on a Sprint Cartridge and run on the nCounter Sprint. Data analysis was performed in nSolver using background thresholding based on negative controls, positive control normalization, reference sample normalization and normalization to housekeeping genes (GUSB, HPRT1, POLR1B, RPLP0, SRFS4, and/or UBC). […]

For the compound `Cc1cccc(-c2[nH]ncc2-c2ccc(F)c(-c3cnn(CCO)c3)c2)n1` [Alk5 Inh., reference compound], under “1 μM”, the “% Inhibition of expression COL1A1” value is 79% and the “% Inhibition of expression COL1A2” value is 46%.

Take `CC[C@H]1[C@@H](O)[C@@H]2[C@H](CC[C@]3(C)[C@@H]([C@H](C)CCC(=O)O)CC[C@@H]23)[C@@]2(C)CC[C@@H](O)C[C@@H]12` [OCA, obeticholic acid, reference compound]: the “% Inhibition of expression COL1A1” value (250 nM) is 44% and the “% Inhibition of expression COL1A1” value (2.5 μM) was 35%. In addition, the “% Inhibition of expression COL1A2” value is given as 19% (250 nM) and 15% (2.5 μM).
